Data: the supplement of paper PMC10307832

Columns and labels:
Experiment in all cases: relative viability (nuclei count vs DMSO), 5 days (fraction); higher = more cells survive
Vandetanib + Alpelisib = compound: COc1cc2/c(=N/c3ccc(Br)cc3F)nc[nH]c2cc1OCC1CCN(C)CC1 [Vandetanib] + Cc1nc(NC(=O)N2CCC[C@H]2C(N)=O)sc1-c1ccnc(C(C)(C)C(F)(F)F)c1 [Alpelisib] (partner 2 µM)
How it was run: (§1)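 Nuclei were stained with Hoechst during a one-step fixation (final 0.05% Triton X-100, 1% formaldehyde, 1 ug/ml Hoechst) carried out 5 days after dosing, then counted on 4× images. The cells, lung cancer lines in 1536-well plates, had been dosed by pin tool the day after seeding with one drug alone or a fixed anchor-drug dose plus five library-drug doses (not always all listed) in √10 steps. Relative viability is the nuclei count in treated wells divided by that in vehicle wells, and each value is the median of duplicate plates.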

Vandetanib + Phenformin = compound: COc1cc2/c(=N/c3ccc(Br)cc3F)nc[nH]c2cc1OCC1CCN(C)CC1 [Vandetanib] + N=C(N)NC(=N)NCCc1ccccc1 [Phenformin] (partner 250 µM)
How it was run: as §1

[1] = compound: C1=CC=C2C(=C1)N=C(S2)C(C#N)C3=NC(=NC=C3)NCCC4=CN=CC=C4 + C[C@]1(O)C[C@@H](c2nc(-c3ccc4ccc(-c5ccccc5)nc4c3)c3c(N)nccn32)C1 [Linsitinib] (partner 1 µM)
How it was run: as §1

CUDC-101 + AZD7762 = compound: C#Cc1cccc(Nc2ncnc3cc(OC)c(OCCCCCCC(=O)NO)cc23)c1 [CUDC-101] + NC(=O)Nc1cc(-c2cccc(F)c2)sc1C(=O)N[C@H]1CCCNC1 [AZD7762] (partner 0.2 µM)
How it was run: as §1

Cell Line | relative viability (Vandetanib + Alpelisib; first compound 0.02 µM) | relative viability (Vandetanib + Alpelisib; first compound 0.06325 µM) | relative viability (Vandetanib + Alpelisib; first compound 0.2 µM) | relative viability (Vandetanib + Alpelisib; first compound 0.6325 µM) | relative viability (Vandetanib + Alpelisib; first compound 2 µM) | relative viability (Vandetanib + Phenformin; first compound 0.02 µM) | relative viability (Vandetanib + Phenformin; first compound 0.06325 µM) | relative viability (Vandetanib + Phenformin; first compound 0.2 µM) | relative viability (Vandetanib + Phenformin; first compound 0.6325 µM) | relative viability (Vandetanib + Phenformin; first compound 2 µM) | relative viability ([1]; first compound 0.005 µM) | relative viability ([1]; first compound 0.01581 µM) | relative viability ([1]; first compound 0.05 µM) | relative viability ([1]; first compound 0.1581 µM) | relative viability ([1]; first compound 0.5 µM) | relative viability (CUDC-101 + AZD7762; first compound 0.01 µM) | relative viability (CUDC-101 + AZD7762; first compound 0.03162 µM) | relative viability (CUDC-101 + AZD7762; first compound 0.1 µM) | relative viability (CUDC-101 + AZD7762; first compound 0.3162 µM) | relative viability (CUDC-101 + AZD7762; first compound 1 µM)
PC-3 [JPC-3] | 1.03 | 1 | 0.982 | 0.736 | 0.507 | 0.471 | 0.466 | 0.496 | 0.334 | 0.331 | 0.898 | 0.983 | 0.957 | 0.942 | 0.965 | 0.731 | 0.752 | 0.65 | 0.538 | 0.361
IA-LM | 0.588 | 0.783 | 0.791 | 0.961 | 0.811 | – | – | – | – | – | – | 0.544 | 0.32 | 0.607 | 0.637 | – | – | – | – | –
NCI-H520 | 0.832 | 0.924 | 1.04 | 0.868 | 0.921 | 0.563 | 0.58 | 0.481 | 0.518 | 0.548 | 0.552 | 0.97 | 0.923 | 1.11 | 0.735 | – | – | – | – | –
A549 | 0.686 | 0.698 | 0.613 | 0.751 | 0.663 | 0.195 | 0.133 | 0.121 | 0.142 | 0.0686 | 0.476 | 0.684 | 0.549 | 0.661 | 0.595 | – | – | – | – | –
BEN | 0.976 | 0.897 | 0.928 | 1.04 | 0.867 | 0.266 | 0.278 | 0.279 | 0.292 | 0.262 | 0.6 | 0.953 | 0.885 | 0.973 | 0.74 | 0.68 | 0.735 | 0.703 | 0.684 | 0.645
COR-L 105 | 1.04 | 0.864 | 0.998 | 0.932 | 0.425 | 0.535 | 0.483 | 0.449 | 0.292 | 0.294 | 0.956 | 1.04 | 1.11 | 1.11 | 0.992 | – | – | – | – | –
NCI-H1734 | 0.673 | 0.684 | 0.737 | 0.756 | 0.678 | 0.403 | 0.369 | 0.32 | 0.379 | 0.39 | 0.779 | 0.939 | 0.881 | 0.946 | 0.797 | 0.521 | 0.433 | 0.462 | 0.312 | 0.182
LOU-NH91 | 0.753 | 0.619 | 0.539 | 0.551 | 0.481 | 0.709 | 0.619 | 0.537 | 0.509 | 0.51 | 0.919 | 0.931 | 0.834 | 0.973 | 0.935 | 0.754 | 0.751 | 0.741 | 0.798 | 0.556
NCI-H2405 | 0.813 | 0.405 | 0.733 | 0.958 | 0.677 | 0.376 | 0.302 | 0.374 | 0.39 | 0.202 | 0.817 | 0.889 | 0.847 | 0.911 | 1.01 | 0.763 | 0.704 | 0.809 | 0.747 | 0.649
HCC-15 | 0.877 | 0.84 | 0.93 | 0.874 | 0.793 | 0.476 | 0.429 | 0.468 | 0.449 | 0.447 | 0.842 | 0.911 | 0.926 | 0.888 | 0.882 | 1.3 | 1.08 | 1.2 | 1.15 | 1.18
HCC-44 | 0.799 | 0.812 | 0.999 | 0.807 | 0.762 | 0.186 | 0.223 | 0.175 | 0.242 | 0.121 | 0.655 | 0.724 | 0.696 | 0.666 | 0.65 | 1.04 | 1.01 | 1.05 | 0.981 | 1.06
NCI-H1792 | 0.676 | 0.672 | 0.694 | 0.705 | 0.565 | 0.298 | 0.236 | 0.184 | 0.254 | 0.175 | – | 0.711 | 0.537 | 0.495 | 0.39 | 0.789 | 0.513 | 0.687 | 0.653 | 0.423
NCI-H2347 | 1.01 | 0.591 | 1.05 | 1.28 | 1.03 | 0.336 | – | 0.256 | 0.403 | 0.493 | 0.899 | 0.854 | 0.954 | 0.953 | 0.966 | 0.934 | 0.653 | 0.697 | 0.791 | 0.569
SW 900 | – | – | – | – | – | 0.635 | 0.657 | 0.197 | 0.474 | 0.434 | – | – | – | – | – | 0.57 | 0.476 | 0.568 | 0.716 | 0.555
RERF-LC-KJ | 0.82 | 0.694 | 0.833 | 0.774 | 0.678 | 0.436 | 0.379 | 0.37 | 0.375 | 0.335 | 1.01 | 0.877 | 0.853 | 0.861 | 0.781 | 1.01 | 0.971 | 1.18 | 0.922 | 0.608
NCI-H522 | – | – | – | – | – | 0.691 | 0.623 | 0.66 | 0.585 | 0.712 | – | – | – | – | – | 0.932 | 0.753 | 0.791 | 0.75 | 0.689
NCI-H1666 | 0.89 | 0.764 | 0.793 | 0.668 | 0.401 | 0.541 | 0.559 | 0.585 | 0.586 | 0.562 | 0.81 | 0.846 | 0.722 | 0.91 | 0.766 | 0.943 | 0.741 | 0.879 | 0.92 | 0.641
LC-2-ad | 0.815 | 0.876 | 0.898 | 0.802 | 0.498 | 0.615 | 0.512 | 0.548 | 0.475 | 0.305 | 0.886 | 0.85 | 0.844 | 0.878 | 0.82 | 0.904 | 0.858 | 0.824 | 0.778 | 0.581
